Results on one compound are retold here after US11576906B2, “Inhibiting mutant IDH-1” (FORMA Therapeutics, Inc., priority 2018, dated 2023).

A short description of the data set: Dynamic vapor sorption (DVS) of solid form. Format: physicochemical.

Regarding `C[C@H](Nc1ccc(C#N)n(C)c1=O)c1cc2cc(Cl)ccc2[nH]c1=O` [Compound 1 Type A, (S)-5-((1-(6-chloro-2-oxo-1,2-dihydroquinolin-3-yl)ethyl)amino)-1-methyl-6-oxo-1,6-dihydropyridine-2-carbonitrile], the hygroscopicity entry was “not hygroscopic”.
